How the values were obtained:
SKOV3 cells = test: Wound-healing assay, SKOV3; type: cell-based; settings: 8 μM, 24 hours
Description: (§1) Wound Healing was Performed in 12-Well Plates Coated with 1 μg/Ml FN (Sigma, #1141) overnight at 4° C. OC cells were plated at a density of 2×10^5 cells/well in media containing 2% FBS. Under these conditions cells adhered on substrate, but cell proliferation was minimized. After 16 hours, the cell monolayer was scraped in straight line. Cell debris was removed and serum free media containing selected SMIs or control was replenished. For consistency during image acquisition, a reference point was marked close to the scratch mark and the plate was imaged under phase-contrast microscope at 0, 2, 6, 12 and 24 hours. Wound closure was assessed as the distance between the wound edges, calculated and quantified using the Image Pro-Express software. The percentage of wound closure was evaluated using the formula […]. The rate of migration (μm/h) of OC cells into the wound space was evaluated as the distance difference between wound edges at 0 and 24 h, divided by 24. The experiments were performed in duplicates.

[1] = target: T1, His-tagged TG2 / biotinylated FN42 interaction (Homo sapiens, UniProt P21980); test: ELISA of the TG2-FN interaction; type: binding; settings: 10 μM
T1 construct: made in house
T1 sequence (P21980 1-687): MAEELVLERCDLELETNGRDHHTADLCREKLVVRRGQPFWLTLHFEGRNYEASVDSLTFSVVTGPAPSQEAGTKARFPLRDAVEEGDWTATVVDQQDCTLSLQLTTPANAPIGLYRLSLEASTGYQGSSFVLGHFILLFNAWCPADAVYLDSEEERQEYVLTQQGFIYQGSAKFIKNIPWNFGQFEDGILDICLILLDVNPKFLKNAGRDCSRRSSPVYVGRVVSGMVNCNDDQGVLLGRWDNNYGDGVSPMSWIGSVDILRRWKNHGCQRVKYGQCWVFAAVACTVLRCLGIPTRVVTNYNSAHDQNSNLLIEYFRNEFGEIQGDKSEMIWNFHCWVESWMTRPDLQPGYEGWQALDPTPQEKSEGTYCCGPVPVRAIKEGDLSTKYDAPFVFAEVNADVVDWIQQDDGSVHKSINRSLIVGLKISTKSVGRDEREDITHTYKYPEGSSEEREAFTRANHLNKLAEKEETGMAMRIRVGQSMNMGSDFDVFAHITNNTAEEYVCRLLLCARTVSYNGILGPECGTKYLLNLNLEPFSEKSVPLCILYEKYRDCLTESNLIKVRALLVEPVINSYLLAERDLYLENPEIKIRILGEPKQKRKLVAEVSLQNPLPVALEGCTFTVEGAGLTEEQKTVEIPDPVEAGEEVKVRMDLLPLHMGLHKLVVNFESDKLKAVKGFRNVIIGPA
Description: Confirmation using ELISA: An independent ELISA validated inhibition of TG2/FN complex formation by SMIs^11. The ELISA assay measured the binding between His6-TG2 captured to the wells by anti-His antibodies and biotinylated FN42 detectable with streptavidin-HRP (FIG. 12A). […] Selected compounds (at concentrations between 5 and 10 μM) inhibited the ELISA signal by 29.7% to 69.5%^11.
ELISA measured the interaction between recombinant His tagged TG2 (rTG2-His) and the biotinylated 42 kD fragment of FN (FN42) which were expressed and purified, as previously described (Yakubov et al., 2014). Briefly, a mixture of 10 nMrTG2-His and selected SMIs or DMSO was added to 96 well plates pre-coated with monoclonal anti-His antibody (Roche, Indianapolis, Ind.; 1:6000). The mixture was incubated for 1 h at RT with 5 nM biotinylated FN42. After washing, wells were incubated with streptavidin-HRP (Cell Signaling, #3999; 1:2000). The reaction was developed with 3,3′,5,5′tetramethylbenzidine (TMB) substrate (BD Biosciences, #555214) and the optical density at […] was measured by using a BioTek microplate reader (Winooski, Vt., USA). Data shown are means±SEM of two independent experiments (n=6).

OVCAR5 cells = test: Wound-healing assay, OVCAR5; type: cell-based, human; settings: 8 μM, 24 hours
Description: as §1

[2] = tested on: FAK phosphorylation in SKOV3 cells; test: Western blotting, FAK phosphorylation dose response; type: cell-based; settings: increasing doses (TG53 8 to 16 μM), 2 hours after adhesion to FN
Description: FIG. 33. Dose response effects induced by TG2-FN inhibitors on FAK phosphorylation.
Lysates were separated by SDS-PAGE, transferred onto PVDF membranes (Bio-Rad), incubated with primary and secondary antibodies and developed by using SuperSignal™ West Femto Maximum Sensitivity Substrate and Pierce™ ECL Western Blotting Substrate, respectively (Thermo Scientific). Images were obtained by using the ImageQuant LAS 4000 mini-imager (GE Healthcare, Pittsburgh, Pa.). Densitometry analysis was performed using Quantity One software (Bio-Rad) and results were normalized to GAPDH loading controls. DMSO 0 min time point was considered as 1 for comparative analysis.

[3] = tested on: SKOV3 cells adhesion onto LP9 monolayers; test: Cell adhesion to LP9 mesothelial monolayers, SKOV3; type: cell-based; settings: 25 μM
Description: (§2) LP9 mesothelial cells added to clear-bottom 96-well plate at 12,000 cells/well were grown to confluency over 48 hours (h). OC cells were labeled with calcein AM and seeded at a density of 4×10^4 cells to monolayers of mesothelial cells and incubated for 1 h. Non-adherent cells were removed by washing with PBS.

[4] = tested on: OVCAR433 cells adhesion onto LP9 monolayers; test: Cell adhesion to LP9 mesothelial monolayers, OVCAR433; type: cell-based; settings: at concentrations >10 μM
Description: as §2

[5] = tested on: SKOV3 cells adhesion to FN; test: Solid phase adhesion assay to FN, SKOV3; type: cell-based; settings: FN 5 μg/mL, FIG. 2E
Description: Cells labeled with calcein AM (Life Technologies, #L3224) were seeded at a density of 4×10^4 cells in 96-well plates pre-coated with FN (5 μg/mL, Sigma, #F1141), and blocked using 1% BSA (Sigma, #A9647) in PBS in the presence of selected compounds diluted at the specified concentrations, in serum free media. After 45 minutes, unattached cells were washed using PBS containing 1 mM MgCl2(Sigma, #M8266) and adherent cells were quantified in a SpectraMaxGeminiXS fluorescence plate reader (Molecular Devices, Palo Alto, Calif.) at 530 nm wavelength. Experiments were performed inquadruplicate and repeated at least twice.

Solubility assay = type: physicochemical; settings: aqueous buffer, kinetic from dmso stock; pH=7.4 PBS buffer, 2% DMSO
Description: Solubility was measured in a 384-well plate using a Synergy HTX plate reader. Starting with a 50 mM DMSO stock solution of test compounds, dilutions were made from 1 to 500 μM final concentrations using acetonitrile, keeping the final DMSO concentration at 2%. UV absorption was measured at 254 nm and absorbance versus concentration was plotted to give a standard curve. A DMSO stock of test compound was also diluted with pH=7.4 PBS buffer to give a final concentration of 250 μM containing 2% DMSO. This mixture was stirred on a plate shaker for 1 hr after which it was centrifuged at 2500 rpm for 3 min. 50 μL of the supernatant was removed, transferred to a 384-well plate, and the UV absorbance at 254 nm was measured. Absorbance of the test compound in PBS buffer was analyzed with the standard curve to determine solubility.

SKOV3-GFP cells = test: In vivo cell attachment to the peritoneum; parameters: species or system mice; settings: for unattached OC cells recovered from the peritoneal cavity: NSG mice, ip, 10 μg/kg, 2 hours after injection

Cc1cc(N(C)C)nc(Nc2ccc(NC(=O)c3ccc4ccccc4c3)cc2)n1 [MT-5]
motility (scratch repair) (SKOV3 cells): inhibited
inhibition of rTG2-FN42 interaction relative to TG53 [1]: slightly more potently than TG53
motility (scratch repair) (OVCAR5 cells): inhibited
FAK phosphorylation [2]: dose-dependent inhibition
SKOV3 cell binding to the mesothelial layer [3]: significantly decreased
OVCAR433 adhesion to the LP9 layer [4]: dose-dependent inhibitory effect
OC cells' adhesion to FN [5]: potently blocked

COc1cccc(C(=O)Nc2ccc(Nc3nc(C)cc(N(C)C)n3)cc2)c1 [MT-2]
OC cells' adhesion to FN [5]: potently blocked

Cc1cc(N(C)C)nc(Nc2ccc(NC(=O)c3ccc(Cl)c(Cl)c3)cc2)n1 [MT-3]
inhibition of rTG2-FN42 interaction relative to TG53 [1]: slightly more potently than TG53

Cc1cc(N(C)C)nc(Nc2ccc(NC(=O)c3cccc(Br)c3)cc2)n1 [MT-6]
motility (scratch repair) (SKOV3 cells): inhibited
solubility at 1 h (Solubility assay): 6.4 µM
inhibition of rTG2-FN42 interaction relative to TG53 [1]: slightly more potently than TG53
unattached OC cells recovered from the peritoneal cavity (SKOV3-GFP cells): attached less efficiently
unattached OC cells recovered from the peritoneal cavity (SKOV3-GFP cells; listed as MT6): Increased numbers
adhesion of cancer cells to the peritoneum (SKOV3-GFP cells; nude mice, i.p., 2 hours): prevented the adhesion
motility (scratch repair) (OVCAR5 cells): inhibited
OVCAR433 adhesion to the LP9 layer [4]: dose-dependent inhibitory effect
OC cells' adhesion to FN [5]: potently blocked

— US20210276960A1, “INHIBITORS OF TISSUE TRANSGLUTAMINASE 2 (TG2) AND USES THEREOF” (Northwestern University, priority 2020, published 2021)
